Results published in patent US9302999B2, “Substituted triazoles as herbicides” (E. I. DU PONT DE NEMOURS AND COMPANY, priority 2012, dated 2016).

What was measured:
Format in all cases: in vivo
[1] = system: velvetleaf (Abutilon theophrasti); assay: Test A pre-/postemergence: velvetleaf
Procedure, shortened: (§1)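 Plants in loam–sand blend were treated with test chemicals in non-phytotoxic solvent with surfactant, either as preemergence directed soil spray or postemergence at 2–10 cm, one- to two-leaf stage. After about ten days in greenhouse, injury was rated visually against untreated controls on a 0–100 scale (100 = complete control).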

[2] = system: wheat (Triticum aestivum); assay: Test A pre-/postemergence: wheat
Procedure, shortened: as §1

[3] = system: morningglory (Ipomoea spp.); assay: Test A pre-/postemergence: morningglory
Procedure, shortened: as §1

rice (Oryza sativa) = assay: Test B flooded paddy: rice; details: Flood, applied to paddy water at 2-leaf stage, visually evaluated after 13 to 15 days
Procedure, shortened: (§2)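 Visual ratings (0 = no effect, 100 = complete control) versus untreated controls were taken 13–15 days after treatment of greenhouse plants. Treatment was added to paddy water held at 3 cm depth on 2-leaf-stage seedlings.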

[4] = system: pigweed (Amaranthus retroflexus); assay: Test A pre-/postemergence: pigweed
Procedure, shortened: as §1

[5] = system: barnyardgrass (Echinochloa crus-galli); assay: Test B flooded paddy: barnyardgrass; details: Flood, applied to paddy water at 2-leaf stage, visually evaluated after 13 to 15 days
Procedure, shortened: as §2

[6] = system: foxtail, giant (giant foxtail, Setaria faberii); assay: Test A pre-/postemergence: foxtail, giant
Procedure, shortened: as §1

corn (Zea mays) = assay: Test A pre-/postemergence: corn
Procedure, shortened: as §1

[7] = system: crabgrass, large (large crabgrass, Digitaria sanguinalis); assay: Test A pre-/postemergence: crabgrass, large
Procedure, shortened: as §1

[8] = system: barnyardgrass (Echinochloa crus-galli); assay: Test A pre-/postemergence: barnyardgrass
Procedure, shortened: as §1

[9] = system: ducksalad (Heteranthera limosa); assay: Test B flooded paddy: ducksalad; details: Flood, applied to paddy water at 2-leaf stage, visually evaluated after 13 to 15 days
Procedure, shortened: as §2

[10] = system: sedge, umbrella (small-flower umbrella sedge Cyperus difformis); assay: Test B flooded paddy: sedge, umbrella; details: Flood, applied to paddy water at 2-leaf stage, visually evaluated after 13 to 15 days
Procedure, shortened: as §2

[11] = Postemergence, 125 g ai/ha, 0 to 100 scale, 0 is no effect, 100 is complete control
[12] = Preemergence, 125 g ai/ha, 0 to 100 scale where 0 is no effect and 100 is complete control
[13] = Preemergence, 500 g ai/ha, 0 to 100 scale (0 no effect, 100 complete control)
[14] = Postemergence, 500 g ai/ha, visual rating on 0 to 100 scale (0 no effect, 100 complete control), approximately ten days
[15] = Postemergence, 500 g ai/ha, 0 to 100 scale, 0 is no effect, 100 is complete control

| SMILES | Plant response rating, Velvetleaf [1, 11] | Plant response rating, Velvetleaf [1, 12] | Plant response rating, Velvetleaf [1, 13] | Plant response rating, Wheat [2, 11] | Plant response rating, Wheat [2, 12] | Plant response rating, Wheat [2, 13] | Plant response rating, Morningglory [3, 11] | Plant response rating, Morningglory [3, 12] | Plant response rating, Morningglory [3, 13] | Plant response rating, Pigweed [4, 11] | Plant response rating, Pigweed [4, 12] | Plant response rating, Pigweed [4, 13] | Plant response rating, Foxtail, Giant [6, 11] | Plant response rating, Foxtail, Giant [6, 12] | Plant response rating, Foxtail, Giant [6, 13] | Plant response rating, Corn (corn (Zea mays); [11]) | Plant response rating, Corn (corn (Zea mays); [12]) | Plant response rating, Corn (corn (Zea mays); [13]) | Plant response rating, Crabgrass, Large [7, 11] | Plant response rating, Crabgrass, Large [7, 12] | also measured |
| --- | --- | --- | --- | --- | --- | --- | --- | --- | --- | --- | --- | --- | --- | --- | --- | --- | --- | --- | --- | --- | --- |
| Cc1nn(-c2ccc(F)cc2)nc1Cc1cccc(C(F)(F)F)c1 [Compound 157] | 40 | 0 | 0 | 0 | 0 | 0 | 60 | 0 | 0 | 100 | 80 | 100 | 80 | 90 | 100 | 20 | 0 | 0 | 40 | 20 | Wheat plant response rating [2, 14]: 20; Morningglory plant response rating [3, 14]: 80; Plant response rating, Rice (0 to 100 scale, 0 is no effect, 100 is complete control) (rice (Oryza sativa); 250 g ai/ha): 0; Pigweed plant response rating [4, 14]: 100; Plant response rating, Barnyardgrass (0 to 100 scale, 0 is no effect, 100 is complete control) ([5]; 250 g ai/ha): 0; Foxtail, Giant plant response rating [6, 14]: 90; Corn plant response rating (corn (Zea mays); [14]): 40; Crabgrass, Large plant response rating [7, 14]: 80; Plant response rating, Crabgrass, Large [7, 13]: 90; Plant response rating, Barnyardgrass [8, 11]: 20; Barnyardgrass plant response rating [8, 14]: 70; Plant response rating, Barnyardgrass [8, 12]: 20; Plant response rating, Barnyardgrass [8, 13]: 100; Plant response rating, Ducksalad (0 to 100 scale, 0 is no effect, 100 is complete control) ([9]; 250 g ai/ha): 20; Plant response rating, Sedge, Umbrella (0 to 100 scale, 0 is no effect, 100 is complete control) ([10]; 250 g ai/ha): 40 |
| CCOc1nn(-c2ccc(F)cc2)nc1C(=O)c1ccnc(C(F)(F)F)c1 [Compound 177] | 20 | 0 | 20 | 20 | 0 | 0 | 90 | 20 | 40 | 60 | 10 | 50 | 20 | 90 | 100 | 20 | 0 | 0 | 10 | 90 | Velvetleaf plant response rating [1, 15]: 50; Wheat plant response rating [2, 15]: 30; Morningglory plant response rating [3, 15]: 100; Plant response rating, Rice (0 to 100 scale, 0 is no effect, 100 is complete control) (rice (Oryza sativa); 125 g ai/ha): 0; Pigweed plant response rating [4, 15]: 100; Plant response rating, Barnyardgrass (0 to 100 scale, 0 is no effect, 100 is complete control) ([5]; 125 g ai/ha): 0; Foxtail, Giant plant response rating [6, 15]: 70; Corn plant response rating (corn (Zea mays); [15]): 30; Crabgrass, Large plant response rating [7, 15]: 60; Plant response rating, Crabgrass, Large [7, 13]: 100; Plant response rating, Barnyardgrass [8, 11]: 0; Barnyardgrass plant response rating [8, 15]: 20; Plant response rating, Barnyardgrass [8, 12]: 0; Plant response rating, Barnyardgrass [8, 13]: 70; Plant response rating, Ducksalad (0 to 100 scale, 0 is no effect, 100 is complete control) ([9]; 125 g ai/ha): 0; Plant response rating, Sedge, Umbrella (0 to 100 scale, 0 is no effect, 100 is complete control) ([10]; 125 g ai/ha): 40 |
